Results taken from ChEMBL document CHEMBL5346961, “Discovery and Evaluation of 3-Quinoxalin Urea Derivatives as Potent, Selective, and Orally Available ATM Inhibitors Combined with Chemotherapy for the Treatment of Cancer via Goal-Oriented Molecule Generation and Virtual Screening” (J Med Chem, 2023).

What was measured:
[1] = molecular target: T1, Serine-protein kinase ATM (Homo sapiens, UniProt Q13315); experiment: Inhibition of ATM (unknown origin) assessed as remaining activity at 1 uM preincubated with compound for 30 mins followed by substrate addition and measured after 2 hrs by HTRF method relative to control; conditions: time 2.5 hrs
T1 sequence (Q13315 whole entry): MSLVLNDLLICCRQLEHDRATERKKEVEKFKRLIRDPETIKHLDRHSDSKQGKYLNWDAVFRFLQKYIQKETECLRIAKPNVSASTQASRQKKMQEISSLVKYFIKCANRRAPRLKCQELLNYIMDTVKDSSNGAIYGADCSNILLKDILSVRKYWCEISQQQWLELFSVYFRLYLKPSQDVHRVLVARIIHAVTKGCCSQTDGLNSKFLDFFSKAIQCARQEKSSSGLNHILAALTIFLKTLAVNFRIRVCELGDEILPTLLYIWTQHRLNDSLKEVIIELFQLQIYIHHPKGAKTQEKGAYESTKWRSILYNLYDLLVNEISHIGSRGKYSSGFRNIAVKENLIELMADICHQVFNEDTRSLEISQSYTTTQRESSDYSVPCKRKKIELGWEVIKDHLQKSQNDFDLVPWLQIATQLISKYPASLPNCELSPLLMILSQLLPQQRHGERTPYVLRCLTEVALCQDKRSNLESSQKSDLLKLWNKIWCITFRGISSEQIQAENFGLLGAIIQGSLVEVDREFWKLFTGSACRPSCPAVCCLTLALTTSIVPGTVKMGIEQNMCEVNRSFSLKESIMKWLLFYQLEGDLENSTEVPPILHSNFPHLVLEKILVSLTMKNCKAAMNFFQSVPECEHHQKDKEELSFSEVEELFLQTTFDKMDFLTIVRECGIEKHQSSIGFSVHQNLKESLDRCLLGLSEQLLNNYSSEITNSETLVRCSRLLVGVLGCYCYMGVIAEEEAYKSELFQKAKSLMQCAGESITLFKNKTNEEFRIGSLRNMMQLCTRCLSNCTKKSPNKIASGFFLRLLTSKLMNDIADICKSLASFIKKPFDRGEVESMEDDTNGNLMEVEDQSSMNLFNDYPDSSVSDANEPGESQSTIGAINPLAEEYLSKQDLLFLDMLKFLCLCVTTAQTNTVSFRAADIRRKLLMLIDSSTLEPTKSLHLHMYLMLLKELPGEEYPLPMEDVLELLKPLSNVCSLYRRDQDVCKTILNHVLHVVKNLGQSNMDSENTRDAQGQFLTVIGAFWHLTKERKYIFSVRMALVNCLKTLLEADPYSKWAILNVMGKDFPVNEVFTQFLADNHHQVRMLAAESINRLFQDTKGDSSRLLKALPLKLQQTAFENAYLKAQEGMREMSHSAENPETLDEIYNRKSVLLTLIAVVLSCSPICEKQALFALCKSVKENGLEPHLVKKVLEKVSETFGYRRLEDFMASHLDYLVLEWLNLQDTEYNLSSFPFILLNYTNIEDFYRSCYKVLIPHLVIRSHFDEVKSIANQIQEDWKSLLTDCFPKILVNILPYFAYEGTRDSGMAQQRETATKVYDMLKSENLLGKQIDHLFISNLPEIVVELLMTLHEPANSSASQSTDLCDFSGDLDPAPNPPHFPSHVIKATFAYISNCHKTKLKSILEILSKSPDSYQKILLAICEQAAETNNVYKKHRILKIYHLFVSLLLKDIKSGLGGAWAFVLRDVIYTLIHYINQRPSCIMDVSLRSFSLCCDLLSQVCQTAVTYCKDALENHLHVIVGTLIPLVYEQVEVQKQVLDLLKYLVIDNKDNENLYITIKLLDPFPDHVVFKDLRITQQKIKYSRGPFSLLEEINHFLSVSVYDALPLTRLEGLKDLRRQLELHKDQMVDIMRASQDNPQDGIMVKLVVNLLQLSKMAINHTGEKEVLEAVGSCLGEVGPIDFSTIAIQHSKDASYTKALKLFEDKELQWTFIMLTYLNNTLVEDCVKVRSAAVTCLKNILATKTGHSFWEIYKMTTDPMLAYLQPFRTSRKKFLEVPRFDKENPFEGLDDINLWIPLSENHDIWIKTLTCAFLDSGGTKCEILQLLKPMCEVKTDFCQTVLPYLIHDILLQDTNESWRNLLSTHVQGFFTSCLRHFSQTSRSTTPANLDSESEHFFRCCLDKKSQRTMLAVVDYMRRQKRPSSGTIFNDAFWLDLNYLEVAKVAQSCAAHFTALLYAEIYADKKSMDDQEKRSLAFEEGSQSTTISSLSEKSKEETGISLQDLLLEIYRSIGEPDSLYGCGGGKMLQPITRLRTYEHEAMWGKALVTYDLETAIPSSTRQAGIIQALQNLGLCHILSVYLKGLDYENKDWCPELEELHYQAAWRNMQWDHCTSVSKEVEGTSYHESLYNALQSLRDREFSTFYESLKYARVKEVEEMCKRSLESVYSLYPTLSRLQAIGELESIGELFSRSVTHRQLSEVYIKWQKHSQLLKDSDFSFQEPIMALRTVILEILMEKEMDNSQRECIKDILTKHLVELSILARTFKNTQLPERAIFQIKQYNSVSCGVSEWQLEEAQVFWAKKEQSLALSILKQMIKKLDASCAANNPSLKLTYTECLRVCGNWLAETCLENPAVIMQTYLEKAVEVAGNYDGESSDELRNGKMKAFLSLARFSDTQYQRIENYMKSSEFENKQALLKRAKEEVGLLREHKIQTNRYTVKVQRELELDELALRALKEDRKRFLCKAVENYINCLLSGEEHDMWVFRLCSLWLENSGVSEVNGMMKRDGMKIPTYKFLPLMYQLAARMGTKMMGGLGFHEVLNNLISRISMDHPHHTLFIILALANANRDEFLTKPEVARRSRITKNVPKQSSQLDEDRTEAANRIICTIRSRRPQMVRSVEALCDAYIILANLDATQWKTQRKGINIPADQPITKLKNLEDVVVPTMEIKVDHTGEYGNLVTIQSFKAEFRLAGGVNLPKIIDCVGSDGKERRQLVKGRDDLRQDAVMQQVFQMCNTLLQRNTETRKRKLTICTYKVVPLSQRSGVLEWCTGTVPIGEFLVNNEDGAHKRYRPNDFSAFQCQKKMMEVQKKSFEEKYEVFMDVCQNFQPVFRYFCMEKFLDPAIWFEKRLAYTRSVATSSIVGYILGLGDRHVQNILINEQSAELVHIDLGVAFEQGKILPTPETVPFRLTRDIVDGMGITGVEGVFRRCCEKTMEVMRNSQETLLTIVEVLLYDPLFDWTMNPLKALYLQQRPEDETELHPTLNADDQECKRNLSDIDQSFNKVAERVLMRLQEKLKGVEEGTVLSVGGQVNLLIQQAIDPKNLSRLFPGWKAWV

[2] = molecular target: T1, Serine-protein kinase ATM; experiment: Inhibition of ATM (unknown origin) assessed as remaining activity at 0.01 uM preincubated with compound for 30 mins followed by substrate addition and measured after 2 hrs by HTRF method relative to control; conditions: time 2.5 hrs
[3] = molecular target: T1, Serine-protein kinase ATM; experiment: Inhibition of ATM (unknown origin) preincubated with compound for 30 mins followed by substrate addition and measured after 2 hrs by HTRF method
[4] = system: HCT-116; experiment: Inhibition of colony formation in human HCT-116 cells at 0.01 uM preincubated for 1 hr followed by exposure to 2 Gy gamma irradiation and measured after 1 week by crystal violet staining based […] assay relative to control; type: functional; conditions: HCT-116, light or radiation study, time 169 hrs
[5] = system: HCT-116; experiment: Inhibition of colony formation in human HCT-116 cells preincubated for 1 hr followed by exposure to 2 Gy gamma irradiation and measured after 1 week by crystal violet staining based […] assay; type: functional, cell-based; conditions: HCT-116, light or radiation study
[6] = molecular target: Serine/threonine-protein kinase ATR (Homo sapiens, UniProt Q13535); experiment: Inhibition of ATR (unknown origin) assessed as remaining activity at 1 uM in presence of [gamma33P-ATP] by radiometric assay
[7] = Metabolic stability in human liver microsomes assessed as clearance at 1 uM in presence of NADPH-regenerating system by LC-MS/MS analysis; type: ADME, Microsome
[8] = Metabolic stability in human liver microsomes assessed as half life at 1 uM in presence of NADPH-regenerating system by LC-MS/MS analysis; type: ADME, Microsome
[9] = system: HCT-116; experiment: Antiproliferative activity against human HCT-116 cells assessed as cell survival at 1 uM incubated for 6 days by MTT assay relative to control; type: functional; conditions: HCT-116, 144 h, time 6 day, read-out: Survival

SMILES	Activity [1]	Activity [2]	IC50 [3]	inhibition at 0.01 µM [4]	IC50 [5]	Activity [6]	CLH [7]	half-life at 1 µM [8]	viability at 1 µM [9]
CC(C)NC(=O)N(C)c1cnc2ccc(-c3cnc(OCCCN4CCCCC4)cc3F)cc2n1	-3%	29%	5 nM	27.4%					
CN(C)CCCOc1ccc(-c2ccc3ncc4c(c3c2)n(C2CCOCC2)c(=O)n4C)cn1				94.3%	0.46 nM				
C=CCNC(=O)N(C)c1cnc2ccc(-c3ccc(OCCCN(C)C)nc3)cc2n1		11%	2 nM	49.7%	12.2 nM	103%	55 mL/min/g	25 min	
CN(C)CCCOc1ccc(-c2ccc3ncc(N(C)C(=O)Nc4cccc(C(F)(F)F)c4)nc3c2)cn1		39%		-11.9%		109%			
CCNC(=O)N(C)c1cnc2ccc(-c3ccc(OCCCN(C)C)nc3)cc2n1		33%	6 nM	57.8%		104%	127 mL/min/g	11 min	
CC(C)NC(=O)N(C)c1cnc2ccc(-c3ccc(OCCCN4CCCCC4)nc3F)cc2n1			1 nM	68.7%	15.4 nM		7.4 mL/min/g	187 min	
CN(C)CCCOc1ccc(-c2ccc3ncc(NC(=O)NC(C)(C)C)nc3c2)cn1	-2%					94%	185 mL/min/g	8 min	
CC(C)NC(=O)N(C)c1cnc2ccc(-c3ccc(OCCCN4CCOCC4)nc3)cc2n1		4%	3 nM	64.1%	7.13 nM		24 mL/min/g	61 min	> 83%
CC(C)NC(=O)N(C)c1cnc2ccc(-c3cnc(OCCCN4CCCCC4)c(F)c3)cc2n1	6%	94%		-3.96%					
Cc1cc(OCCCN2CCCCC2)ncc1-c1ccc2ncc(N(C)C(=O)NC(C)C)nc2c1	22%	96%		-19.8%					
COCCCOc1ccc(-c2ccc3ncc(N(C)C(=O)NC(C)C)nc3c2)cn1	43%	103%		-24.2%					
CC(C)NC(=O)N(C)c1cnc2ccc(-c3ccc(OCCCCN(C)C)nc3)cc2n1	-1%	66%	26 nM	20.2%			60 mL/min/g	35 min	
CC(C)NC(=O)N(C)c1cnc2ccc(-c3ccc(OCCN4CCOCC4)nc3)cc2n1	13%	94%		16.9%					
CN(C)CCCOc1ccc(-c2ccc3ncc(N(C)C(=O)N[C@]45C[C@@H]6C[C@H](C[C@@H](C6)C4)C5)nc3c2)cn1		37%	8 nM	-3.67%		101%	19 mL/min/g	73 min	
CN(C)CCCOc1ccc(-c2ccc3ncc(N(C)C(=O)NC(C)(C)C)nc3c2)cn1		22%	13 nM	44.7%		98%	100 mL/min/g	14 min	
CC(C)NC(=O)N(C)c1cnc2ccc(-c3ccc(OCCCN4CCN(C)CC4)nc3)cc2n1		5%	3 nM	73.6%	5.41 nM		13 mL/min/g	107 min	> 83%
CC(C)NC(=O)N(C)c1cnc2ccc(-c3ccc(OCCN4CCCCC4)nc3)cc2n1	4%	86%		24%			47 mL/min/g	38 min	
CC(C)NC(=O)N(C)c1cnc2ccc(-c3ccc(OCCN4CCN(C)CC4)nc3)cc2n1	22%	97%		22.8%					
CN(C)CCCOc1ccc(-c2ccc3ncc(NC(=O)NC4CCCC4)nc3c2)cn1	-5%					98%	144 mL/min/g	10 min	
CC(C)NC(=O)N(C)c1cnc2ccc(-c3cnc(OCCCN4CCCCC4)c(C(F)(F)F)c3)cc2n1	10%	90%		-13.6%					
CC(C)NC(=O)N(C)c1cnc2ccc(-c3ccc(OCCC4CCCN4C)nc3)cc2n1 (stereo unspecified)	-3%	43%	10 nM	36.5%			51 mL/min/g	48 min	

SMILES	Activity [1]	Activity [2]	IC50 [3]	inhibition at 0.01 µM [4]	IC50 [5]	Activity [6]	CLH [7]	half-life at 1 µM [8]	viability at 1 µM [9]
CC(C)CCCOc1ccc(-c2ccc3ncc(N(C)C(=O)NC(C)C)nc3c2)cn1	33%								
CC1CCC(NC(=O)N(C)c2cnc3ccc(-c4ccc(OCCCN(C)C)nc4)cc3n2)CC1 (stereo unspecified)		8%	2 nM	76.2%		94%	93 mL/min/g	19 min	
Cc1cc(-c2ccc3ncc(N(C)C(=O)NC(C)C)nc3c2)cnc1OCCCN1CCCCC1	29%	107%		-28.4%					
CC(C)NC(=O)N(C)c1cnc2ccc(-c3ccc(OCC4CCCN(C)C4)nc3)cc2n1 (stereo unspecified)	0%	43%	22 nM	-8.09%			36 mL/min/g	55 min	
CC(C)NC(=O)N(C)c1cnc2ccc(-c3ccc(OCCCN4CCCC4=O)nc3)cc2n1	71%	106%		33.7%			19 mL/min/g	90 min	
COc1ccc(NC(=O)N(C)c2cnc3ccc(-c4ccc(OCCCN(C)C)nc4)cc3n2)cc1		22%	3 nM	-0.75%		120%	45 mL/min/g	51 min	
CC(C)NC(=O)N(C)c1cnc2ccc(-c3ccc(OC(C)CN(C)C)nc3)cc2n1 (stereo unspecified)	4%	94%		14.7%			43 mL/min/g	55 min	
C=CCNC(=O)Nc1cnc2ccc(-c3ccc(OCCCN(C)C)nc3)cc2n1	-3%					101%	151 mL/min/g	9 min	
CN(C)CCCOc1ccc(-c2ccc3ncc(N(C)C(=O)Nc4ccc(Cl)cc4)nc3c2)cn1		37%		11.7%		111%			
CC(C)NC(=O)N(C)c1cnc2ccc(-c3ccc(OCCN4CCCC4)nc3)cc2n1	1%	76%		25%					
CCCNC(=O)N(C)c1cnc2ccc(-c3ccc(OCCCN(C)C)nc3)cc2n1		12%	3 nM	77.4%		102%	84 mL/min/g	16 min	
CC(C)NC(=O)N(C)c1cnc2ccc(-c3ccc(OCCCN4CCCC4)nc3F)cc2n1			4 nM	43.4%	26.5 nM		6.8 mL/min/g	204 min	
Cc1nc(OCCCN2CCCCC2)ccc1-c1ccc2ncc(N(C)C(=O)NC(C)C)nc2c1	-4%	16%	9 nM	48.2%	21.9 nM		3 mL/min/g	462 min	
CCCNC(=O)Nc1cnc2ccc(-c3ccc(OCCCN(C)C)nc3)cc2n1	-4%					99%	120 mL/min/g	12 min	
CC(C)NC(=O)N(C)c1cnc2ccc(-c3ccc(OC4CCN(C)CC4)nc3)cc2n1	25%	100%		-7.74%					
CC(C)NC(=O)N(C)c1cnc2ccc(-c3ccc(OCCCN4CCCCC4)nc3C#N)cc2n1	-4%	26%	16 nM	14%			5.1 mL/min/g	277 min	
CC(C)NC(=O)N(C)c1cnc2ccc(-c3ccnc(OCCCN4CCCCC4)c3)cc2n1	10%	97%		32.2%					
CC(C)NC(=O)N(C)c1cnc2ccc(-c3ccc(OC4CCC(N(C)C)CC4)nc3)cc2n1 (stereo unspecified)	54%	108%		11.3%					
CC(C)NC(=O)Nc1cnc2ccc(-c3ccc(OCCCN(C)C)nc3)cc2n1	-4%					98%	94 mL/min/g	15 min	
CC(C)NC(=O)N(C)c1cnc2ccc(-c3ccc(OCCN(C)C)nc3)cc2n1	-2%	73%	30 nM	-0.98%			37 mL/min/g	46 min	
CC(C)NC(=O)N(C)c1cnc2ccc(-c3ccc(OCC4CCN(C)C4)nc3)cc2n1 (stereo unspecified)	1%	72%	31 nM	32.9%			40 mL/min/g	50 min	
